Data on four compounds can be found in patent US20080207596A1, “Novel compounds 329” (priority 2006, published 2008).

The assay deals with T1, human active recombinant p38α-6His tagged (Homo sapiens, UniProt Q16539).
T1 construct: 6His
Put plainly: P38 alpha enzyme assay (AlphaScreen, biotinylated-ATF2 substrate). To be noted: 4 hours pre-incubation at 37° C., 1 mM ATP added. Type of assay: biochemical. As to the method: Enzyme assays were performed in polypropylene 96 well plates. The following solutions were added to each well; 10 μL of compound dilutions in assay buffer (20 mM HEPES pH 7.4, containing 20 mM magnesium acetate, 0.005% (w/v) Tween-20, 10 mM DTT) containing 1% (v/v) DMSO or assay buffer containing 1% (v/v) DMSO alone, 70 μL of assay buffer containing 36 nM substrate (biotinylated-ATF2) and 10 μL of an appropriate dilution of human active recombinant p38α-6His tagged. Depending on batch of p38, an appropriate dilution was typically a 5 nM solution to give a final enzyme concentration of 0.5 nM. At this stage, background control wells also received 50 μL of AlphaScreen quench buffer (10 mM HEPES pH 7.4 containing 100 mM EDTA, 0.2% (w/v) bovine serum albumin). The plate was covered, pre-incubated for 4 hours at 37° C. and the enzyme reaction initiated by addition of 10 μL 1 mM ATP. After incubation for a further 45 minutes at 37° C., the reaction was stopped by addition of 50 μL quench reagent and 50 μL of the quenched reaction mixture transferred to an opaque, white 96-well plate. Detection reagent, 25 μL of 10 mM HEPES pH 7.4 containing 100 mM EDTA, 0.2% (w/v) bovine serum albumin, 0.3 nM anti phosphoATF2 antibody and 25 μg/mL of AlphaScreen protein A acceptor and donor beads, was added to all wells in a darkened room, the plate sealed and left in the dark for between 5 and 24 hours before AlphaScreen readings were taken using a Perkin Elmer EnVision reader.
On the technique in general: Alpha assays give light when donor and acceptor beads are brought close together.

T1 sequence (Q16539 whole entry): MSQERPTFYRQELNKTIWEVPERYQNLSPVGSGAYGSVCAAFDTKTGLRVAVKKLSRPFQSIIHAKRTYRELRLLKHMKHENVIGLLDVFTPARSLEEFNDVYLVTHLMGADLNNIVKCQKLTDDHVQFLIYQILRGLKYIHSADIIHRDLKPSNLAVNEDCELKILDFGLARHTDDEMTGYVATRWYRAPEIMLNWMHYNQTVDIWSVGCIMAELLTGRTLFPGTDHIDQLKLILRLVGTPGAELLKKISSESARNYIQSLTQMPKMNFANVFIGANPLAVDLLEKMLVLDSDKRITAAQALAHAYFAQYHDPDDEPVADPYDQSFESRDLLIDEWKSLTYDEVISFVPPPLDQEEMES

A word on the IC50: it is the concentration that gives 50% inhibition. For the compound `Cc1ccc(NC(=O)c2cccc(N3CCCCC3)c2)cc1-n1ccc2ccc(OCCN3CCCC3)cc2c1=O` [Example 1, N-{4-Methyl-3-[1-oxo-7-(2-pyrrolidin-1-ylethoxy)isoquinolin-2(1H)-yl]phenyl}-3-piperidin-1-ylbenzamide], the IC50 was 10 nM.
As for `Cc1ccc(NC(=O)c2ccnc(N3CCCC3)c2)cc1-n1ccc2ccc(OCCN3CCCC3)cc2c1=O` [Example 5, N-{4-Methyl-3-[1-oxo-7-(2-pyrrolidin-1-ylethoxy)isoquinolin-2(1H)-yl]phenyl}-2-pyrrolidin-1-ylisonicotinamide], the figure is 2 nM; as for `Cc1ccc(NC(=O)c2ccnc(-c3cccs3)c2)cc1-n1ccc2ccc(OCCN(C)C)cc2c1=O` [Example 9, N-{3-[7-[2-(dimethylamino)ethoxy]-1-oxoisoquinolin-2(1H)-yl]-4-methylphenyl}-2-(2-thienyl)isonicotinamide], 0.2 nM.
As for `Cc1ccc(NC(=O)c2cccc(-c3cnco3)c2)cc1-n1ccc2ccc(OCCCN3CCCC3)cc2c1=O` [Example 11, N-{4-Methyl-3-[1-oxo-7-(3-pyrrolidin-1-ylpropoxy)isoquinolin-2(1H)-yl]phenyl}-3-(1,3-oxazol-5-yl)benzamide], the figure is 0.794 nM.
